Test systems include A498; A549; COLO 205; HCC 2998; HT-29; Hs-578T; IGROV-1; KM12; LOX IMVI; MDA-MB-231; MDA-MB-435; MDA-N; NCI-H460; OVCAR-3; PC-3; SF-295; SK-OV-3; T47D; U-251; UO-31.
Common to all, as to experiment: growth of human tumour cells (NCI), 48 h

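Following 48 hours of exposure in 96-well plates, responses at five concentrations were used to interpolate endpoints linearly. Abbreviation: GI50, concentration required for 50% inhibition of growth.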 Calls of active or inactive are those of the source. Rule as the data show it: active = GI50 up to about 1.1 µM and inactive = higher.

As for `Cc1cn([C@@H]2O[C@H](CO[Si](C)(C)C(C)(C)C)[C@]3(O[C@H]3C(=O)NN)[C@H]2O[Si](C)(C)C(C)(C)C)c(=O)[nH]c1=O`, the GI50 in the assay with A498 was 16.9 µM (inactive); with A549 it was 6.03 µM (inactive); in the assay on COLO 205 it was 2.64 µM (inactive); with HCC 2998, 3.13 µM (inactive); with HT-29, 2.9 µM (inactive); in the assay with Hs-578T, 2.72 µM (inactive). Besides, the GI50 was 6.22 µM (inactive) in the assay with IGROV-1; 7.67 µM (inactive) in the assay on KM12; 3.33 µM (inactive) in the assay on LOX IMVI; 3.57 µM (inactive) in the assay on MDA-MB-231; 7.11 µM (inactive) in the assay with MDA-MB-435; 5.78 µM (inactive) in the assay with MDA-N. The GI50 in the assay with NCI-H460 was 4.31 µM (inactive); in the assay with OVCAR-3, 3.76 µM (inactive); with PC-3 it was 4.6 µM (inactive); in the assay with SF-295, 7.69 µM (inactive); with SK-OV-3, 18.1 µM (inactive); with T47D it was 2.36 µM (inactive). Moreover, the values for the GI50 in the assay with U-251 and in the assay on UO-31 were 4.23 µM (inactive) and 14.2 µM (inactive), respectively.
As for `Clc1ccc(CSC2=NCCN2)cc1Cl`, the GI50 in the assay with A498 was 21.3 µM (inactive); in the assay on A549 it was 27 µM (inactive); with COLO 205 it was 17.7 µM (inactive); in the assay with HCC 2998, 15.2 µM (inactive); in the assay with HT-29, 14.2 µM (inactive); in the assay with Hs-578T, 19.8 µM (inactive). Moreover, the GI50 in the assay with IGROV-1 is 18.9 µM (inactive); in the assay with KM12 it was 16.9 µM (inactive); with LOX IMVI, 13.8 µM (inactive); in the assay with MDA-MB-231 it was 11.8 µM (inactive); in the assay on MDA-MB-435, 16 µM (inactive); in the assay on MDA-N, 11.7 µM (inactive). Also, the GI50 in the assay on NCI-H460 is 16.1 µM (inactive); in the assay on OVCAR-3, 14.1 µM (inactive); in the assay with PC-3, 10.4 µM (inactive); with SF-295 it was 36.8 µM (inactive); with SK-OV-3, 24.6 µM (inactive); in the assay with T47D it was 7.19 µM (inactive). Also, the GI50 was 12.5 µM (inactive) in the assay on U-251 and 11.4 µM (inactive) in the assay with UO-31.
For `CC1OC(OC2C(OC3CCC4(C)C(CCC5(C)C4CC=C4C6CC(C)(C)CCC6(C(=O)O)CCC45C)C3(C)CO)OCC(O)C2O)C(O)C(O)C1O` (configuration not stated), the GI50 in the assay on A498 is 14.2 µM (inactive); with A549, 19.1 µM (inactive); with COLO 205, 20.8 µM (inactive); with HCC 2998, 13.4 µM (inactive); in the assay on HT-29 it was 15.5 µM (inactive); in the assay on Hs-578T, 14.1 µM (inactive). Further, the GI50 in the assay on IGROV-1 is 15.6 µM (inactive); in the assay on KM12 it was 7.1 µM (inactive); in the assay with LOX IMVI, 11.1 µM (inactive); with MDA-MB-231 it was 17.9 µM (inactive); in the assay with MDA-MB-435 it was 18.7 µM (inactive); with MDA-N it was 21.1 µM (inactive). Besides, the GI50 in the assay on NCI-H460 is 19 µM (inactive); in the assay on OVCAR-3 it was 27.3 µM (inactive); with PC-3, 13 µM (inactive); in the assay with SF-295, 15.1 µM (inactive); in the assay on SK-OV-3, 18.1 µM (inactive); in the assay with T47D, 22.1 µM (inactive). The GI50 with U-251 was 21.9 µM (inactive); in the assay with UO-31, 3.66 µM (inactive).
Take `C=C1c2nc3ccccc3n2C=C(c2ccc(C)cc2)N1c1ccccc1`: the GI50 was 4.53 µM (inactive) with A498; 5.55 µM (inactive) in the assay on A549; 3.04 µM (inactive) in the assay with COLO 205; 2.26 µM (inactive) with HCC 2998; 1.61 µM (inactive) in the assay on HT-29; 4.21 µM (inactive) with Hs-578T. In addition, the GI50 in the assay on IGROV-1 was 3.33 µM (inactive); with KM12, 1.1 µM (active); in the assay with LOX IMVI it was 5.24 µM (inactive); with MDA-MB-231, 4.92 µM (inactive); in the assay with MDA-MB-435 it was 0.439 µM (active); with MDA-N it was 0.508 µM (active). Also, the GI50 in the assay with NCI-H460 was 2.88 µM (inactive); in the assay on OVCAR-3, 2.38 µM (inactive); with PC-3, 2.75 µM (inactive); in the assay on SF-295, 1.88 µM (inactive); in the assay on SK-OV-3, 7.45 µM (inactive); in the assay on T47D, 3.24 µM (inactive). Also, the GI50 in the assay on U-251 is 3.27 µM (inactive); in the assay with UO-31, 9.62 µM (inactive).
As for `C[N+]1(CC[N+]2(C)CCCC2c2cccnc2)CCCC1c1cccnc1` (configuration not stated), the GI50 was > 100 µM (inactive) with A498; > 100 µM (inactive) in the assay with A549; 86.1 µM (inactive) in the assay on COLO 205; > 100 µM (inactive) with HCC 2998; 50.6 µM (inactive) in the assay with HT-29; > 100 µM (inactive) in the assay with Hs-578T. For the same molecule, the GI50 was > 100 µM (inactive) in the assay on IGROV-1; > 100 µM (inactive) in the assay with KM12; > 100 µM (inactive) in the assay with LOX IMVI; > 100 µM (inactive) in the assay with MDA-MB-231; 33.2 µM (inactive) in the assay with MDA-MB-435; 32.5 µM (inactive) in the assay with MDA-N. The GI50 with NCI-H460 was > 100 µM (inactive); in the assay with OVCAR-3, > 100 µM (inactive); in the assay with PC-3 it was > 100 µM (inactive); in the assay on SF-295, > 100 µM (inactive); with SK-OV-3, > 100 µM (inactive); with T47D it was 42.4 µM (inactive). Also, the results for the GI50 in the assay on U-251 and in the assay with UO-31 were 60 µM (inactive) and > 100 µM (inactive), respectively.
With `COc1ccc(/C=C2\C(=O)NC(=O)c3ccccc32)cc1OC`, the GI50 was > 66.5 µM (inactive) with A498; 48.2 µM (inactive) in the assay with A549; 50.4 µM (inactive) in the assay on COLO 205; > 46.6 µM (inactive) in the assay on HCC 2998; 54.8 µM (inactive) with HT-29; 53.5 µM (inactive) with Hs-578T. Also, the GI50 with IGROV-1 was 13.8 µM (inactive); in the assay with KM12 it was 39.4 µM (inactive); in the assay on LOX IMVI it was 10.5 µM (inactive); with MDA-MB-231, 48.2 µM (inactive); with MDA-MB-435 it was 30.1 µM (inactive); in the assay on MDA-N, > 43.6 µM (inactive). For the same molecule, the GI50 was 45.6 µM (inactive) with NCI-H460; 7.48 µM (inactive) in the assay on OVCAR-3; 45.2 µM (inactive) in the assay on PC-3; 52.2 µM (inactive) in the assay on SF-295; 36.3 µM (inactive) in the assay on SK-OV-3; > 100 µM (inactive) in the assay with T47D. Also, the GI50 with U-251 is 11.8 µM (inactive); with UO-31 it was 29.9 µM (inactive).
As for `COc1c(O)c(O)cc2c1-c1ccc(OC)c(=O)cc1C(NC(C)=O)CC2` (configuration not stated), the GI50 with A498 was 15.5 µM (inactive); in the assay on A549 it was 37.4 µM (inactive); in the assay on COLO 205, 3.13 µM (inactive); in the assay on HCC 2998 it was 5.38 µM (inactive); in the assay with HT-29, 3.07 µM (inactive); in the assay on Hs-578T it was 2.66 µM (inactive). Moreover, the GI50 with IGROV-1 was 5.26 µM (inactive); in the assay with KM12 it was 3.43 µM (inactive); in the assay on LOX IMVI, 4.84 µM (inactive); in the assay with MDA-MB-231 it was 4.94 µM (inactive); in the assay with MDA-MB-435, 1.6 µM (inactive); in the assay with MDA-N, 1.69 µM (inactive). For the same molecule, the GI50 in the assay with NCI-H460 was 6.07 µM (inactive); in the assay with OVCAR-3, 2.21 µM (inactive); with PC-3 it was 6.62 µM (inactive); with SF-295, 5.13 µM (inactive); with SK-OV-3, 5.35 µM (inactive); in the assay with T47D, > 100 µM (inactive). For the same molecule, the figures for the GI50 in the assay on U-251 and in the assay with UO-31 were 4.03 µM (inactive) and 56.1 µM (inactive), respectively.
Consider `NNC(=O)c1c(Cl)c(Cl)c(Cl)c(Cl)c1-c1nc2ccccc2[nH]1`, for which the GI50 in the assay with A498 was 15 µM (inactive); in the assay with A549 it was 10 µM (inactive); in the assay on COLO 205, 16.4 µM (inactive); in the assay on HCC 2998, 8.63 µM (inactive); in the assay on HT-29 it was 14.8 µM (inactive); in the assay on Hs-578T it was 18.1 µM (inactive). In addition, the GI50 with IGROV-1 is 1.18 µM (inactive); with KM12 it was 6.76 µM (inactive); with LOX IMVI, 12.7 µM (inactive); in the assay with MDA-MB-231 it was 21.3 µM (inactive); in the assay on MDA-MB-435 it was 2.12 µM (inactive); in the assay on MDA-N it was 2.94 µM (inactive). The GI50 was 11.8 µM (inactive) with NCI-H460; 6.64 µM (inactive) in the assay on OVCAR-3; 16.6 µM (inactive) in the assay with PC-3; 4.91 µM (inactive) in the assay on SF-295; 15.7 µM (inactive) in the assay with SK-OV-3; 2.47 µM (inactive) in the assay with T47D. Further, in the assay on UO-31, the GI50 was 19.4 µM (inactive).
Regarding `COc1cc(C2c3[nH]c4ccccc4c3C[C@H]3COC(=O)N23)cc(OC)c1OC` (some centres not stated), the GI50 in the assay with A498 is 0.0745 µM (active); in the assay with A549 it was 0.101 µM (active); with COLO 205, 0.0687 µM (active); in the assay on HCC 2998, 0.131 µM (active); with HT-29 it was 0.097 µM (active); in the assay on Hs-578T it was 0.0219 µM (active). The GI50 in the assay with KM12 was 0.0552 µM (active); in the assay on LOX IMVI, 0.0336 µM (active); in the assay with MDA-MB-231 it was 0.815 µM (active); in the assay with MDA-MB-435, 0.0213 µM (active); in the assay with MDA-N, 0.0181 µM (active); in the assay with NCI-H460, 0.055 µM (active). For the same molecule, the GI50 in the assay with OVCAR-3 was 0.0307 µM (active); with PC-3, 0.0411 µM (active); in the assay on SF-295, 0.0262 µM (active); in the assay on SK-OV-3, 0.0366 µM (active); in the assay with T47D it was > 10 µM (inactive); in the assay on U-251, 0.0445 µM (active). In addition, the GI50 in the assay on UO-31 is 0.0431 µM (active).
With `CCOc1cc(NC(C)=O)ccc1C(=O)NN1C(=O)C(Cl)C1c1ccccc1` (configuration not stated), the GI50 is 17.4 µM (inactive) in the assay with A498; 16.5 µM (inactive) with A549; 14.2 µM (inactive) in the assay on COLO 205; 17.4 µM (inactive) with HCC 2998; 16.6 µM (inactive) with HT-29; 21.2 µM (inactive) with Hs-578T. Moreover, the GI50 is 3.92 µM (inactive) with IGROV-1; 17.3 µM (inactive) in the assay on KM12; 1.37 µM (inactive) in the assay on LOX IMVI; 13.2 µM (inactive) with MDA-MB-231; 11.5 µM (inactive) in the assay with MDA-MB-435; 13.8 µM (inactive) with MDA-N. The GI50 with NCI-H460 was 16 µM (inactive); in the assay on OVCAR-3, 14.7 µM (inactive); with PC-3 it was 14 µM (inactive); in the assay on SF-295 it was 20.4 µM (inactive); in the assay with SK-OV-3 it was 16.9 µM (inactive); in the assay with T47D, 12.5 µM (inactive). Further, in the assay on UO-31, the GI50 is 3.31 µM (inactive).

These data come from ChEMBL document CHEMBL1201862, “PubChem BioAssay data set” (2004).
